Measured values from US6245758A, “Methods of use for peroxynitrite decomposition catalysts, pharmaceutical compositions therefor” (priority 1996, dated 2001).

Key:
rat jejunum [1] = test: Intestinal vascular permeability (radiolabelled albumin leakage) after endotoxin (LPS); format: in vivo; conditions: 30 mg/kg, i.v, 3 h after LPS; determined 1 h later
Procedure: FIG. 10 . Effects of FeTMPS, FeTMPyP or ZnTMPyP (30 mg/kg, i.v bolus) administered 3 h after challenge with E. coli lipopolysaccharide (LPS, 3 mg/kg, i.v bolus) on the increase in leakage of radio-labelled albumin (plasma extravasation, μl/g tissue) observed 1 h later (e.g 4 h after LPS challenge) in the rat jejunum. Results are shown as mean±s.e.m of 4-8 rats.
Intestinal vascular permeability was determined as the leakage into the jejunal tissue of [^125 I]-labelled bovine serum albumin ([^125 ]-BSA) administered intravenously (0.5 ml; 0.5 μCi) together with either LPS (3 mg/kg, serotype O111:B4) or isotonic saline. At 4 h after LPS administration, segments of jejunal tissue were ligated and removed. The intestinal tissues were rapidly washed, blotted dry and weighed. Blood (0.5 ml) was collected into tubes containing tri-sodium citrate (0.318% final concentration) and plasma prepared by centrifugation (10,000 g×10 min). The {^125 I]-BSA content in segments of whole tissue and in aliquots of plasma (100 μl) was determined in a gamma counter. The total content of plasma in the intestinal tissues was expressed as μl/g tissue. Changes in intravascular volume in the intestinal tissue was determined in an additional group of rats by administering ([^125 I]-BSA) intravenously 2 min before removal of the jejunum. The tissue and plasma content of radiolabel was determined and intravascular volume expressed as μl/g tissue. This value was substracted from that obtained in the plasma leakage studies to obtain a measure of the intestinal plasma albumin leakage. After LPS administration (4 h), there was a significant (P<0.01) increase in the plasma leakage (from 77±10 to 224±18 μl/g tissue, n=8).

[2] = system: carrageenan-induced paw edema; test: Carrageenan-induced paw edema; format: in vivo, rat
Description: Carrageenan-induced paw edema. The effects of peroxynitrite catalysts in vivo were initially tested on the carrageenan-induced paw edema. The choice of using this in vivo model of inflammation was based on the knowledge that 1) the inflammatory response is blocked by NOS inhibitors and 2) by superoxide dismutase (SOD). This indicates the participation of both NO and of O2-. Male Sprague Dawley rats were purchased from Harlan Sprague-Dawley (Indianapolis, Ind.). Male Sprague Dawley rats (175-200 g) received a subplantar injection in the right hind paw of carrageenan (0.1 ml of a 1% suspension in 0.85% saline). Paw volume was measured by a plethysmometer immediately before the injection of carrageenan and then at hourly intervals from 1 to 6 h. Edema was expressed as the increase in paw volume (in ml) measured after carrageenan injection compared to the pre-injection value for individual animals.

rat jejunum [3] = test: Histological examination of jejunal tissues after LPS; format: in vivo; conditions: 30 mg/kg i.v.
[4] = Catalysis of dismutation of superoxide; conditions: under the assay conditions employed
[5] = Stopped-flow kinetic analysis of catalytic decomposition of peroxynitrite by metal complexes; conditions: pH = 7.4, 22° C.
Procedure: To screen metal complexes for peroxynitrite decomposition catalytic activity of the present invention, peroxynitrite is prepared and isolated as its sodium salt by the reaction of acidic hydrogen peroxide with sodium nitrite followed by rapid quenching with NaOH as set out by Halfpenny and Robinson, in J. Chem. So., 1952, 928-938. Peroxynitrite has an absorbance maximum at 302 nm with an extinction coefficient of 1670 M^-1 cm^-1. Therefore, it is possible to directly observe the decomposition of peroxynitrite by stop-flow spectrophotometric analysis by monitoring the decomposition of the absorbance at 302 nm. That is, such observation of the decomposition of peroxynitrite at a rate accelerated over the natural decomposition rate with the addition of the metal complex identifies a compound of the present invention.
Kinetic measurements were made on an OLIS Rapid Scanning Stopped-Flow Spectrometer (On-Line Instrument Systems Inc., Bogart, Ga.)) using the OLISRSM-1000 Operating system for data acquisition and manipulation.
Thus, in a typical experiment the natural background decomposition rate of sodium peroxynitrite was determined as follows. A 24 mM stock solution of sodium peroxynitrite in 50 mM NaOH is load into the small volume syringe and 100 mM potassium phosphate pH=7.4 is charged into the large volume syringe of the stopped-flow spectrophotometer. All stopped -flow measurements were made at 22 ° C. Injection of the solutions into the sample compartment results in ~25 fold dilution of the stock sodium peroxynitrite. […] To test for catalytic peroxynitrite decomposition activity, the metal complex was dissolved in 100 mM potassium phosphate buffer pH=7.4 and loaded into the large syringe and the decomposition of peroxynitrite was monitored as described above. The catalytic rate constant (kcat M-1 sec^-1) for the complexes tested was determined by varying the complex concentration and plotting kobs vs [complex] Table 1. The kobs were obtained from averages of three stopped flow analysis at each catalyst concentration.

[6] = 3 mg/kg i.v., 1 h post carrageenan
[7] = 3 mg/kg i.v., 2 h post carrageenan
[8] = 3 mg/kg i.v., 3 h post carrageenan
[9] = 3 mg/kg i.v., 4 h post carrageenan
[10] = 3 mg/kg i.v., 5 h post carrageenan
[11] = 3 mg/kg i.v., 6 h post carrageenan
[12] = 10 mg/kg i.v., 1 h post carrageenan
[13] = 10 mg/kg i.v., 2 h post carrageenan
[14] = 10 mg/kg i.v., 3 h post carrageenan
[15] = 10 mg/kg i.v., 4 h post carrageenan
[16] = 10 mg/kg i.v., 5 h post carrageenan
[17] = 10 mg/kg i.v., 6 h post carrageenan
[18] = 30 mg/kg i.v., 1 h post carrageenan
[19] = 30 mg/kg i.v., 2 h post carrageenan
[20] = 30 mg/kg i.v., 3 h post carrageenan
[21] = 30 mg/kg i.v., 4 h post carrageenan
[22] = 30 mg/kg i.v., 5 h post carrageenan
[23] = 30 mg/kg i.v., 6 h post carrageenan

| SMILES | radiolabelled albumin leakage (rat jejunum [1]) | % Inhibition of Paw Edema [2, 6] [%] | % Inhibition of Paw Edema [2, 7] [%] | % Inhibition of Paw Edema [2, 8] [%] | % Inhibition of Paw Edema [2, 9] [%] | % Inhibition of Paw Edema [2, 10] [%] | % Inhibition of Paw Edema [2, 11] [%] | % Inhibition of Paw Edema [2, 12] [%] | % Inhibition of Paw Edema [2, 13] [%] | % Inhibition of Paw Edema [2, 14] [%] | % Inhibition of Paw Edema [2, 15] [%] | % Inhibition of Paw Edema [2, 16] [%] | % Inhibition of Paw Edema [2, 17] [%] | % Inhibition of Paw Edema [2, 18] [%] | % Inhibition of Paw Edema [2, 19] [%] | % Inhibition of Paw Edema [2, 20] [%] | % Inhibition of Paw Edema [2, 21] [%] | % Inhibition of Paw Edema [2, 22] [%] | % Inhibition of Paw Edema [2, 23] [%] | LPS-induced jejunal damage (histology) (rat jejunum [3]) | also measured |
| --- | --- | --- | --- | --- | --- | --- | --- | --- | --- | --- | --- | --- | --- | --- | --- | --- | --- | --- | --- | --- | --- |
| CC(=O)[O-].Cc1c(-c2c3nc(c(-c4c(C)c(S(=O)(=O)[O-])c(C)c(S(=O)(=O)[O-])c4C)c4ccc([n-]4)c(-c4c(C)c(S(=O)(=O)[O-])c(C)c(S(=O)(=O)[O-])c4C)c4nc(c(-c5c(C)c(S(=O)(=O)[O-])c(C)c(S(=O)(=O)[O-])c5C)c5ccc2[n-]5)C=C4)C=C3)c(C)c(S(=O)(=O)[O-])c(C)c1S(=O)(=O)[O-].[Fe+3].[Na+].[Na+].[Na+].[Na+].[Na+].[Na+].[Na+].[Na+] [Fe(III)TMPS, Acetato-5,10,15,20-tetrakis(3,5-disulfonatomesityl)porphyrin Iron (III) octasodium salt] | caused a reduction in radiolabelled albumin leakage | 0 | 42 | 47 | 47 | 33 | 33 | 0 | 61 | 60 | 53 | 53 | 47 | 0 | 85 | 80 | 80 | 80 | 81 | LPS-induced damage was less severe | catalysis of the dismutation of superoxide [4]: not to be effective catalysts for the dismutation of superoxide; kcat, catalytic rate constant for the decomposition of sodium peroxynitrite [5]: 160000 M⁻¹ s⁻¹ |
| CC(=O)[O-].C[n+]1ccc(-c2c3nc(c(-c4cc[n+](C)cc4)c4ccc([n-]4)c(-c4cc[n+](C)cc4)c4nc(c(-c5cc[n+](C)cc5)c5ccc2[n-]5)C=C4)C=C3)cc1.Cc1ccc(S(=O)(=O)[O-])cc1.Cc1ccc(S(=O)(=O)[O-])cc1.Cc1ccc(S(=O)(=O)[O-])cc1.Cc1ccc(S(=O)(=O)[O-])cc1.[Fe+3] [Fe(III)TMPyP, Acetato (5,10,15,20-tetrakis(N-methyl-4-pyridyl)porphinato) iron (III) tetra-tosylate] | caused a reduction in radiolabelled albumin leakage | 0 | 9 | 10 | 17 | 6 | 0 | 6 | 13 | 11 | 28 | 21 | 2 | 0 | 44 | 43 | 50 | 32 | 32 | LPS-induced damage was less severe | catalysis of the dismutation of superoxide [4]: not to be effective catalysts for the dismutation of superoxide; kcat, catalytic rate constant for the decomposition of sodium peroxynitrite [5]: 2.75e+06 M⁻¹ s⁻¹ |
